Data from patent US20240239790A1, “7-Morpholino-1,6-Naphthyridin-5-yl Derivatives and Pharmaceutical Compositions Thereof Useful as DNA-PK Inhibitor” (adMare Therapeutics Society, priority 2021, published 2024).
Read-outs that look alike come from different tables or passages of the source. Marks after values point to notes of the source that are not given here.

Experiments:
FaDu tumour xenograft = assay: Clonogenic Survival, FaDu tumour xenograft-bearing Rag2M mice, compound ± radiation (CS-ER); format: in vivo, mouse
Method: FaDu tumour xenograft-bearing Rag2M mice were treated with single administrations of test compounds at indicated doses±radiation as indicated, at time 0.
Mice were irradiated at 1 h post compound administration (unless otherwise indicated), with 300 KV X-rays and a 10 mA current from a Precision XRAD 300 machine (USA) with a beam-hardening filter (2 mm Al+0.25 mm Cu+0.75 mm Sn) and an adjustable site to specimen distance (SSD) at a dose of 8-10 Gy, delivered at a rate of ˜1.05 Gy/min.
Mice were terminated at times after irradiation as indicated, and tumour tissues excised. A portion of tumour approximately 300-500 mg was briefly minced using sterile scissors and placed in a pre-weighed gentleMACS C tube (Miltenyi Biotec cat #130-093-237) and weighed with combined tumour+tube mass recorded. A 5 mL aliquot of enzyme cocktail comprising of trypsin/DNase/collagenase/EDTA-Na2 in PBS (1 mg/ml trypsin+0.26 mg/ml DNase+0.21 mg/ml collagenase+2 mM EDTA-Na2) was added to the tube, which is then run on the gentleMACS Dissociator disaggregation system. Tubes were then incubated at 37° C. and continually rotated for 20 min before again running on the gentleMACS Dissociator program. Samples were then diluted with 5 ml MEM medium containing 5% FBS and filtered (Falcon cell strainer 100 μm, cat #352360). After centrifugation (1100 rpm for 6 minutes at 4° C.) supernatant was aspirated and the cells resuspended in 4 ml cold growth medium (MEM+10% FBS)+50 ul DNase (5 mg/ml DNase solution). Cell numbers were counted from the same cell solution using a hemacytometer. Appropriate dilutions (control: 10,000 cells/ml; 8Gy: 400,000 cells/ml; drug+radiation treated; 500,000 cells/ml) were made and cells then plated in triplicate: control: 100 μl and 300 μl (1000 and 3000 cells/6 cm tissue culture plate); 8Gy: 30 μl, 105 μl and 350 μl (12000, 42000 cells/6 cm plates and 140000 cells/10 cm plate); drug+8Gy: 70 μl, 300p, 1.2 ml (35000 and 150000 cells/6 cm plates and 600000 cells/10 cm plates—only duplicate). Plates were incubated at 37° C. (in a 5% CO2, 5% O2 and balance N2 environment) for 14 days. For a final and accurate automated live-cell counting a solution of Hoechst33342 (0.01 mg/ml)+Propidium Iodide (0.004 mg/ml) in 0.9% saline was mixed with an appropriate cell number dilution of the samples in 96 well plates (50 ul staining solution+50 ul cell suspension of 10000 cells/ml) and images are taken of the wells and cell numbers are calculated by a computer program.
After 14 days plates were removed from the incubator, rinsed with PBS and stained with cold 2 g/L Malachite green oxalate salt solution (Sigma-Aldrich, cat #M6880) for 30 minutes at room temperature. Plates were rinsed with distilled water and dried. Pictures were obtained of the plates and colonies consisting of 50 or more cells were counted using a Stuart Scientific colony counter.
All plates with colonies were analyzed except when colony numbers were so high that the edges of individual colonies could not be determined accurately. Plating efficiency (PE) of each tumour sample was calculated first: PE is a ratio of the number of colonies to the number of cells seeded (sum of all the colonies countable in all the plates of the same sample divided by the sum of cells plated in the same plates). The PE of control tumours was averaged for the calculation of surviving fraction (SF): SF is based on the number of colonies formed in drug and/or radiation treated cells relative to that of untreated control (PE of treated tumor sample divided by PE of control). All treated data points were compared separately to the average of the controls. Finally a Clonogenic Survival Enhancement Ratio (CS-ER) was calculated: the SF of irradiated control groups were divided by the SF of treatment groups to determine treatment group-specific CS-ER values, and these were assigned scores based on defined response ranges: values>6=A, 4-6=B, <4=C.

[1] = Pharmacokinetic study in mice (IV and PO), plasma; format: in vivo, mouse; settings: for Cmax: read-out: Cmax (5 min); for Rsq: Mouse Plasma, fit of NCA
Method: Pharmacokinetic analysis of compounds was conducted following bolus intravenous (IV) or bolus oral (PO) gavage in mice. Female mice (C57BL/6) in the 17-26 g range were weighed, and then administered an individually prescribed dose volume based on body weight of formulated compound via the intravenous (IV; tail vein) or oral gavage (PO) route (IV 5 mL/kg; PO 10 mL/kg). At selected timepoints post administration, blood was collected into vials with anticoagulant, processed for plasma by centrifugation, and then kept frozen ([…]) until analysis.
The in-vivo study plasma samples were analyzed using Ultra Performance Liquid Chromatography (UPLC) with tandem mass spectrometry (MS/MS) detection in multiple reaction monitoring (MRM) mode. A generic bioanalytical method involving plasma sample extraction and cleanup by protein precipitation with acetonitrile was used followed by UPLC-MS/MS analysis.
A brief example of a generic bioanalytical UPLC-MS/MS method used for analysis of compounds in the in-vivo study plasma samples is as follows. Plasma samples were spiked with internal standard prior to extraction and cleanup by protein precipitation with ice cold acetonitrile containing 0.1% (v/v) ammonium hydroxide at a ratio of 3:1 (solvent:plasma) and centrifuged at 18213 rcf for 15 minutes at 4° C. to pellet precipitates. Aliquots of supernatants were transferred to a 96-well plate and evaporated to dryness at 40° C. under a stream of nitrogen gas. Samples were reconstituted in 50:50 acetonitrile/10 mM ammonium acetate buffer pH 8, mixed thoroughly and analyzed using Ultra Performance Liquid Chromatography (UPLC) with tandem mass spectrometry (MS/MS) detection in multiple reaction monitoring (MRM) mode. Matrix-matched calibration standards and quality control (QC) samples were prepared in naïve C57Bl/6 mouse plasma. The UPLC column used was Waters Acquity UPLC BEH C18 1.7 um, 2.1 mm×50 mm (with guard column). The UPLC mobile phase consisted of: Mobile phase A: 10 mM ammonium acetate in Water pH 8, and Mobile phase B: Acetonitrile. Separation was accomplished with a linear gradient of 5% mobile phase B to 95% mobile phase B in 2 min, and a flow rate of 0.35 mL/min. The MS/MS data acquisition was accomplished using 3 MRM Transitions in ESI+ mode. Parent ion mass 508.37 m/z-to-Daughter ions (m/z) 117.05, 232.13 and 270.22. The quantitation of concentrations in test samples was achieved by matrix-matched calibration with normalization using an internal standard. Data acquisition and analysis were performed using Waters MassLynx software with TargetLynx application manager.
Estimation of PK parameters was performed using independent noncompartmental model method by PHOENIX WinNonlin software.

[2] = female, C57BL/6, mouse plasma, IV, 3 mg/kg
[3] = female, C57BL/6, mouse plasma, IV, 3 mg/kg, read-out: AUCINF—obs
[4] = female, C57BL/6, mouse plasma, PO, 10 mg/kg
[5] = female, C57BL/6, mouse plasma, PO, 10 mg/kg, read-out: AUCINF—obs
[6] = female, C57BL/6, po, mouse plasma, PC, 3 mg/kg
[7] = female, C57BL/6, mouse plasma, IV, 1 mg/kg

AUC(0-t) [1, 2] [ng·h/mL]	half-life [1, 2] [h]	AUC(0-inf) [1, 3] [ng·h/mL]	Cmax [1, 2] [ng/mL]	AUC(0-t) [1, 4] [ng·h/mL]	half-life [1, 4] [h]	AUC(0-inf) [1, 5] [ng·h/mL]	Cmax [1, 4] [ng/mL]	AUC—% Extrap—obs ([1]; mouse plasma, IV, 3 mg/kg) [%]	Cl_obs ([1]; mouse plasma, IV, 3 mg/kg) [mL/h/kg]	Vz_obs ([1]; mouse plasma, IV, 3 mg/kg) [mL/kg]	AUC—% Extrap—obs ([1]; mouse plasma, PO, 10 mg/kg) [%]	Cl_obs ([1]; mouse plasma, PO, 10 mg/kg) [mL/h/kg]	Vz_obs ([1]; mouse plasma, PO, 10 mg/kg) [mL/kg]	F ([1]; mouse, PO, 10 mg/kg) [%]	SMILES	CS-ER Range Score (FaDu tumour xenograft; 30 mpk + 8 Gy, 4 h)	CS-ER Range Score (FaDu tumour xenograft; 30 mpk + 8 Gy, 2 h)	also measured
1630	4.63	2270	611	5680	5.4	6070	549	28.28	1321.88	8824.88	6.56	1646.25	12835.77	105	CN1CCN(CCOc2cnc(N[C@H]3CC[C@@H](Oc4nc(N5CCOCC5)cc5ncccc45)CC3)nc2)CC1 [Compound 69, 5-(2-(4-Methylpiperazin-1-yl)ethoxy)-N-((1s,4s)-4-((7-morpholino-1,6-naphthyridin-5-yl)oxy)cyclohexyl)pyrimidin-2-amine]	C (<4=C)		
4340	2.21			6770	2.07				685.7	2187.41		1476.26	4415.23		CN(C)C(=O)Cn1c(=O)n(C2CCOCC2)c2nc(N[C@H]3CC[C@@H](Oc4nc(N5CCOCC5)cc5ncccc45)CC3)ncc21 [Compound 97, N,N-Dimethyl-2-(2-(((1s,4s)-4-((7-morpholino-1,6-naphthyridin-5-yl)oxy)cyclohexyl)amino)-8-oxo-9-(tetrahydro-2H-pyran-4-yl)-8,9-dihydro-7H-purin-7-yl)acetamide]	B (4-6=B)	C (<4=C)	Rsq ([1]; IV, 3 mg/kg): 0.98; Rsq ([1]; PO, 10 mg/kg): 0.98; F ([1]; Mouse, PO 10 mg/kg vs IV 3 mg/kg): 47%; Cmax at 5 min [1, 2]: 4860 ng/mL; AUC(0-inf) ([1]; female, C57BL/6, mouse plasma, IV, 3 mg/kg, read-out: AUCINF_obs): 4380 ng·h/mL; Cmax at 5 min [1, 4]: 2520 ng/mL; AUC(0-inf) ([1]; female, C57BL/6, mouse plasma, PO, 10 mg/kg, read-out: AUCINF_obs): 6770 ng·h/mL; AUC_% Extrap_obs ([1]; mouse plasma, IV, 3 mg/kg): 0.77%; AUC_% Extrap_obs ([1]; mouse plasma, PO, 10 mg/kg): 0.03%
4100	1.77	4160	6450	2620	2.92	2630	589	1.44	721.34	1842.6	0.47	3799.7	16019	19	CN(C)C(=O)Cn1ccc2nc(N[C@H]3CC[C@@H](Oc4nc(N5CCOCC5)cc5ncccc45)CC3)ncc21 [Compound 86, N,N-Dimethyl-2-(2-(((1s,4s)-4-((7-morpholino-1,6-naphthyridin-5-yl)oxy)cyclohexyl)amino)-5H-pyrrolo[3,2-d]pyrimidin-5-yl)acetamide]	B B (4-6=B)	B B (4-6=B)	
															CN(C)C(=O)COc1cnc(N[C@H]2CC[C@@H](Oc3nc(N4CCOCC4)cc4ncccc34)CC2)nc1 [Compound 54, N,N-Dimethyl-2-((2-(((1s,4s)-4-((7-morpholino-1,6-naphthyridin-5-yl)oxy)cyclohexyl)amino)pyrimidin-5-yl)oxy)acetamide]			CS-ER Range Score (FaDu tumour xenograft; 100 mpk + 10 Gy, 0.5 h): B (4-6=B); CS-ER Range Score (FaDu tumour xenograft; 100 mpk + 10 Gy, 4 h): A (values>6=A); CS-ER Range Score (FaDu tumour xenograft; 100 mpk + 10 Gy, 8 h): B (4-6=B); CS-ER Range Score (FaDu tumour xenograft; 100 mpk + 10 Gy, 24 h): A (values>6=A); AUC(0-t) [1, 6]: 7650 ng·h/mL; Cmax at 5 min [1, 6]: 2220 ng/mL; half-life [1, 6]: 2.33 h; AUC(0-inf) ([1]; female, C57BL/6, po, mouse plasma, PC, 3 mg/kg, read-out: AUCINF—obs): 7660 ng·h/mL; AUC(0-t) [1, 7]: 3700 ng·h/mL; C0 [1, 7]: 3310 ng/mL; Cmax at 5 min [1, 7]: 2820 ng/mL; half-life [1, 7]: 1.69 h; AUC(0-inf) ([1]; female, C57BL/6, mouse plasma, IV, 1 mg/kg, read-out: AUCINF—obs): 3710 ng·h/mL; AUC—% Extrap—obs ([1]; mouse plasma, IV, 1 mg/kg): 0.10%; Cl_obs ([1]; mouse plasma, IV, 1 mg/kg): 264 mL/h/kg; Vz_obs ([1]; mouse plasma, IV, 1 mg/kg): 646 mL/kg; AUC—% Extrap—obs ([1]; mouse plasma, PC, 3 mg/kg): 0.07%; Cl_obs ([1]; mouse plasma, PC, 3 mg/kg): 358^b mL/h/kg; Vz_obs ([1]; mouse plasma, PC, 3 mg/kg): 1205^a mL/kg; F ([1]; mouse, PC, 3 mg/kg): 74%
															O=S(=O)(CF)Nc1cnc2cc(N3CCOCC3)nc(O[C@H]3CC[C@@H](Nc4ncccn4)CC3)c2c1 [Compound 192, 1-fluoro-N-(7-morpholino-5-(((1s,4s)-4-(pyrimidin-2-ylamino)cyclohexyl)oxy)-1,6-naphthyridin-3-yl)methanesulfonamide]	B (4-6=B)	A (values>6=A)	
															CN(C)C(=O)COc1ccc(C(=O)N[C@H]2CC[C@@H](Oc3nc(N4CCOCC4)cc4ncccc34)CC2)cn1 [Compound 117, 6-(2-(dimethylamino)-2-oxoethoxy)-N-((1s,4s)-4-((7-morpholino-1,6-naphthyridin-5-yl)oxy)cyclohexyl)nicotinamide]	B (4-6=B)	C (<4=C)	
